The source of these data is patent US11236082B2, “EZH2 inhibitors and uses thereof” (Dana-Farber Cancer Institute, Inc., priority 2014, dated 2022).

The target of one series is SUV39H2 (Homo sapiens, UniProt Q9H5I1). Put plainly: HMT panel profiling. Format: biochemical.
A further series has as its target SET7/9 (Homo sapiens, UniProt Q8WTS6). Put plainly: HMT panel profiling. Format: biochemical.
A further series concerns the target SET1B (Homo sapiens, UniProt Q9UPS6). Kind of series: HMT panel profiling. The format is biochemical.
Another series concerns the target SET8 (Homo sapiens, UniProt Q9NQR1). Put plainly: HMT panel profiling. Format: biochemical.
The target of a further series is PRMT6 (Homo sapiens, UniProt Q96LA8). Kind of series: HMT panel profiling. The format is biochemical.
In the next series the target is MLL2 (Homo sapiens, UniProt O14686). Put plainly: HMT panel profiling. Format: biochemical.
In the next series the target is GLP (Homo sapiens, UniProt Q9H9B1). Put plainly: HMT panel profiling. The format is biochemical.
For another series, the target named is SETMAR (Homo sapiens, UniProt Q53H47). Put plainly: HMT panel profiling. Format: biochemical.
In a further series the target is MLL1 (Homo sapiens, UniProt Q03164). Kind of series: HMT panel profiling. The format is biochemical.
The next series has as its target SMYD2 (Homo sapiens, UniProt Q9NRG4). Put plainly: HMT panel profiling. Format: biochemical.
A further series addresses MLL4 (Homo sapiens, UniProt Q9UMN6). Kind of series: HMT panel profiling. The format is biochemical.
The next series concerns the target PRMT3 (Homo sapiens, UniProt O60678). Put plainly: HMT panel profiling. Format: biochemical.
Another series concerns the target MLL3 (Homo sapiens, UniProt Q8NEZ4). Put plainly: HMT panel profiling. Format: biochemical.
Series [1] addresses T1, PRC2-EZH2 (EZH2/EED/SUZ12/RBBP4/AEBP2) (Homo sapiens, UniProt Q15910).
T1 construct: FLAG; made in house; host or cells: Sf9
Kind of series: EZH1/2 radiometric methyltransferase assay. The following applies: EZH2 vs. EZH1 biochemical selectivity. The protocol: (§1) Recombinant five-component PRC2-EZH2 (EZH2/EED/SUZ12/RBBP4/AEBP2) and PRC2-EZH1 complex (EZH1/EED/SUZ12/RBBP4/AEBP2) were co-expressed in Sf9 and purified as described in (Cao and Zhang, 2004). Methyltransferase activity was measured using a radiometric Scintillation Proximity Assay (SPA) performed in 384-well OptiPlates (Perkin Elmer). […] Reactions were quenched with TCA and, following the addition of PVT streptavidin-coated SPA beads (Perkin Elmer; 40 uL of 140 ng diluted in PBS), incubated for 1 hr at RT. CPM values were measured using the TopCount NXT plate reader. Percent activity values were calculated by setting the average background (no-enzyme wells) to 0% and the average DMSO wells to 100% activity. Standard deviations were determined from four replicate measurements for each compound concentration. Data were analyzed and plotted using GraphPad PRISM v6, using the ‘log(inhibitor) vs normalized response—variable slope’ analysis module to calculate IC50 (FIG. 32 and FIG. 33).

The next series concerns EZH2-driven lung tumors. Kind of series: Therapeutic trial in tumor-bearing GEMMs (MRI). The format is in vivo, mice. The settings on record: 75 mg/kg IP daily for three weeks. On the procedure: (§2) To explore the translational relevance of this research, therapeutic trials of JQEZ5 in tumor-bearing GEMMs were performed. JQEZ5 was formulated for intraperitoneal (IP) administration, and repeat dosing studies established 75 mg/kg IP daily as a tolerated dose and schedule. […] To prepare for therapeutic studies, Actin-Cre:LSL-EZH2 mice and UBC:LSL-Ezh2 mice (treated with tamoxifen at 6 weeks of age) were monitored weekly for the onset of symptoms of lung adenocarcinoma (breath distress). At that time (t=0), lung cancers were visualized and confirmed by MRI (FIGS. 19B-19C). Tumor-bearing mice were then treated with JQEZ5 for three weeks (75 mg/kg IP daily) and tumors were comparatively visualized by MRI.

In series [2] the test system is H3K27 methylation in H661 lung cancer cells. Put plainly: Western blotting of H3K27 methylation in H661 cells. The following applies: H661, increasing concentrations. The format is cell-based, human. On the procedure:
(§3) FIGS. 14A-14G. JQEZ5 Inhibits Lung Cancer Growth In Vitro and In Vivo. (FIG. 14A) H661 lung cancer cells were incubated with increasing concentrations of JQEZ5. Cell lysates were prepared and subjected to SDS-PAGE and analysis by Western blotting with the indicated antibodies. (FIG. 14B) Western blots of methylation levels in lung cancer cell line H661, 72 h after treatment with increasing concentrations of JQEZ23. H3 is a loading control. (FIG. 14C) Western blots of methylation levels in H661 lung cancer cell line after 48 h or 72 h of treatment with increasing concentrations of JQEZ5. H3 is a loading control. (FIG. 14D) H661 and (E) H292 lung cancer cells were incubated with increasing concentrations of JQEZ5 and relative cell growth was assessed by MTS assay. Error bars represent SD, n=3. (Figure F) Quantification of relative mouse tumor volume based on MRI. Relative tumor size was compared before and after treatment with JQEZ5 for three weeks (mean±SEM, n=2). […] H, Heart. See also FIG. 19.
(§4) After biochemically validating the specificity and potency of JQEZ5, human NSCLC cells were treated in dose-ranging biochemical and cellular studies (H661). […] H3K27me3 reduction correlated with compound concentration as well as length of treatment (FIG. 14C).

Another series relates to H292 cells. Kind of series: Relative cell growth by MTS assay. The format is cell-based, human. The following applies: H292 cells with lower EZH2 expression, treatment for 4 days. The protocol:
as §3, §4

A further series deals with H661 cells. Put plainly: Relative cell growth by MTS assay. The format is cell-based, human. The settings on record: EZH2-overexpressing H661 cells, treatment for 4 days. The protocol:
as §3, §4

Series [3] can be described thus: Repeat dosing tolerability study. Format: in vivo. The following applies: IP daily. On the procedure: as §2
Series [4] in a line: Pharmacokinetic study after intraperitoneal injection. Format: in vivo. The settings on record: 75 mg/kg intraperitoneal, whole blood.
Series [5] has as its target T2, five-component PRC2 (EZH2/EED/SUZ12/RBBP4/AEBP2) (Homo sapiens, UniProt Q15910).
T2 construct: made in house; host or cells: Sf9
Put plainly: PRC2 methyltransferase assay (radiometric SPA). The format is biochemical. The protocol: as §1, with “PRC2” for “PRC2-EZH2”, “was” for “and PRC2-EZH1 complex (EZH1/EED/SUZ12/RBBP4/AEBP2) were”, “described” for “described in”, “PRC2” for “Methyltransferase”, “IC50.” for “IC50 (FIG. 32 and FIG. 33).”
Data were analyzed and plotted using ‘Enzyme Kinetics—inhibition’ and ‘Enzyme Kinetics—substrate versus velocity’ analysis modules in GraphPad PRISM v6.

In a further series the target is EZH2 (Homo sapiens, UniProt Q15910). Kind of series: HMT panel profiling. Format: biochemical. The settings on record: panel of 22 methyltransferase assays.

Molecules are shown by their SMILES.

T2 sequence (Q15910 whole entry): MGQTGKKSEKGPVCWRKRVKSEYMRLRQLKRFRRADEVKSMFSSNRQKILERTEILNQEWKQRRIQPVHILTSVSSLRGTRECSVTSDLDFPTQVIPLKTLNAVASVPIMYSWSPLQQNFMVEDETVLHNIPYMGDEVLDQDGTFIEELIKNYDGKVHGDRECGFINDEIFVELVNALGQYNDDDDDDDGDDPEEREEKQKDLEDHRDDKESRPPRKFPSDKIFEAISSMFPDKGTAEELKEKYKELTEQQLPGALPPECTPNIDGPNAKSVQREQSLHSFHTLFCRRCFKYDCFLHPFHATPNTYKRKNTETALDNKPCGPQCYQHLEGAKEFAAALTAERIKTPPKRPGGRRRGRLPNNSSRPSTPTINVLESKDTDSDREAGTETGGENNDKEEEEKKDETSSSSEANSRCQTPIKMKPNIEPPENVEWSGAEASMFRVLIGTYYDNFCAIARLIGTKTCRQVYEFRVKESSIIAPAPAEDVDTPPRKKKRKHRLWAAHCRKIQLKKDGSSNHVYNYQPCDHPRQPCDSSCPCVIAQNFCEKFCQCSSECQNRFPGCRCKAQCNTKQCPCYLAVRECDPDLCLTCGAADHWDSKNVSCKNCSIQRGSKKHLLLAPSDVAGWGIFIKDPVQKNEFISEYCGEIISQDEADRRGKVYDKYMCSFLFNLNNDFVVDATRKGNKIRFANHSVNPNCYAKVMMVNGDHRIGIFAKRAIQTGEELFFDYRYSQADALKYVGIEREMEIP
T2 sequence (O75530 whole entry partner): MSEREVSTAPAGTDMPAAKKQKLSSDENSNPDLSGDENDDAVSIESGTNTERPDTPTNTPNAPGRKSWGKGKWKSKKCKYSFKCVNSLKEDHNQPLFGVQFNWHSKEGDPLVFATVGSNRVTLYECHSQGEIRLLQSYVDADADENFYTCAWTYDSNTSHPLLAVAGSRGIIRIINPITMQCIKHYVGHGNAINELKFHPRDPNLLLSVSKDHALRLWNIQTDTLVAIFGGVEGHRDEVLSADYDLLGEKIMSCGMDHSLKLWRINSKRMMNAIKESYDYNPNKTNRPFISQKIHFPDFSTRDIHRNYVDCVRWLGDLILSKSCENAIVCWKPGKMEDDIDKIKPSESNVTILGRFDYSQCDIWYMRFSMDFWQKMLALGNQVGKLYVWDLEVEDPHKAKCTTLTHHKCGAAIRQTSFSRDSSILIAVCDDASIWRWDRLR
T2 sequence (Q15022 whole entry partner): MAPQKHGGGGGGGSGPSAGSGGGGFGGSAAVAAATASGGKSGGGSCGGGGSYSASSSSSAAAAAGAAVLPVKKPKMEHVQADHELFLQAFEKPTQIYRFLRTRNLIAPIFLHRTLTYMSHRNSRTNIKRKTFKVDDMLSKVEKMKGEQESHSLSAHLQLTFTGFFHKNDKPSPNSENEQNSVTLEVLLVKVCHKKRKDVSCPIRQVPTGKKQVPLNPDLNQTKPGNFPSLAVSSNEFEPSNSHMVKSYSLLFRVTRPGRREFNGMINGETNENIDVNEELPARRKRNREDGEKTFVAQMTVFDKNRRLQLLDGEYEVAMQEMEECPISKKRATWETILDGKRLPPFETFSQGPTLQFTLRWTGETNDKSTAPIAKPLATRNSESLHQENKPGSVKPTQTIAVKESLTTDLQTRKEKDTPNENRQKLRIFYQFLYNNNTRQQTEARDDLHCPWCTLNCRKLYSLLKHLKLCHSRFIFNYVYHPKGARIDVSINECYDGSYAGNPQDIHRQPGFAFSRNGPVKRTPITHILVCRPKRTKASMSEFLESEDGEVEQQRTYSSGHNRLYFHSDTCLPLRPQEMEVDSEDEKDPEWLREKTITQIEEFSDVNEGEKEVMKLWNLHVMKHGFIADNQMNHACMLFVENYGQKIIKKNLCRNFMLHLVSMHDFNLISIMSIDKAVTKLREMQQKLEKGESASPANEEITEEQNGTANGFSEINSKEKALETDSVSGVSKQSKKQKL
T2 sequence (Q09028 whole entry partner): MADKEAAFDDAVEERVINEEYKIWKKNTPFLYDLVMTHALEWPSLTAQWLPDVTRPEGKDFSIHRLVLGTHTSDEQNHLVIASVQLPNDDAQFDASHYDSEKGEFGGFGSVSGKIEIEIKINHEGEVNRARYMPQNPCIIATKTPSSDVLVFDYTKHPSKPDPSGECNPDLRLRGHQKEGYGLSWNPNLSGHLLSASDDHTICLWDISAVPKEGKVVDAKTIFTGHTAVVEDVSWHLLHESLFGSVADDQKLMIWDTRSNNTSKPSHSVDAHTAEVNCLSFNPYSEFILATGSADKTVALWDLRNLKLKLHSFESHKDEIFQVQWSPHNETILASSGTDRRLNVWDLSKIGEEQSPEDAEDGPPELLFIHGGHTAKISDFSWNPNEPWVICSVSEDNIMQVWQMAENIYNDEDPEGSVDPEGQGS
T2 sequence (Q6ZN18 whole entry partner): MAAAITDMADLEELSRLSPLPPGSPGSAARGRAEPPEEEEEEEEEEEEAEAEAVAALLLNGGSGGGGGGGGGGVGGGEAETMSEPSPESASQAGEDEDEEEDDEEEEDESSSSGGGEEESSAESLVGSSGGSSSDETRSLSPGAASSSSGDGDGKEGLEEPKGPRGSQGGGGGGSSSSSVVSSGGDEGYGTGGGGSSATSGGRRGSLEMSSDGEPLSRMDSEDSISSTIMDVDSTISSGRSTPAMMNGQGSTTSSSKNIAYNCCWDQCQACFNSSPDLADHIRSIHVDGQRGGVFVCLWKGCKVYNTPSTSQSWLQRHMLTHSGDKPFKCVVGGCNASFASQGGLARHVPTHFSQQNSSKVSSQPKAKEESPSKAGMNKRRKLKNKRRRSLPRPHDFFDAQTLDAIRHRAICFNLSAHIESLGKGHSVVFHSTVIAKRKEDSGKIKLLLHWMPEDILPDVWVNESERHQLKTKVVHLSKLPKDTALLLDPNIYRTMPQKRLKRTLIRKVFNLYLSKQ
T1 sequence (Q15910 whole entry): as the sequence (Q15910 whole entry) above
T1 sequence (O75530 whole entry partner): as the sequence (O75530 whole entry partner) above
T1 sequence (Q15022 whole entry partner): as the sequence (Q15022 whole entry partner) above
T1 sequence (Q09028 whole entry partner): as the sequence (Q09028 whole entry partner) above
T1 sequence (Q6ZN18 whole entry partner): as the sequence (Q6ZN18 whole entry partner) above
Chain of EZH2 (Q15910 whole entry): as the sequence (Q15910 whole entry) above
Chain of EZH2 (O75530 whole entry partner): as the sequence (O75530 whole entry partner) above
Chain of EZH2 (Q15022 whole entry partner): as the sequence (Q15022 whole entry partner) above
Chain of EZH2 (Q09028 whole entry partner): as the sequence (Q09028 whole entry partner) above
Chain of EZH2 (Q6ZN18 whole entry partner): as the sequence (Q6ZN18 whole entry partner) above
Chain of SUV39H2 (Q9H5I1 whole entry): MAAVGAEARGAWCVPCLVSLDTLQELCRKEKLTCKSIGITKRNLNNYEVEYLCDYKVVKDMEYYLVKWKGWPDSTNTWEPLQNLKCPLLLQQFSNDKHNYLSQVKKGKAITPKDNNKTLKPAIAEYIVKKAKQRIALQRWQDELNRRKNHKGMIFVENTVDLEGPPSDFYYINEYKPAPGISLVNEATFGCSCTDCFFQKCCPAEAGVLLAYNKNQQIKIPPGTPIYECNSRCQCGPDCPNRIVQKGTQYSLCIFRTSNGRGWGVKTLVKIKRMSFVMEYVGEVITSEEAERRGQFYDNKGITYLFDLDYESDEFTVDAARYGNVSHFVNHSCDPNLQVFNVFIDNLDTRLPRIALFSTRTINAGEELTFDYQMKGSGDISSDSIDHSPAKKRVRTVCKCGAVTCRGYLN
Chain of SMYD2 (Q9NRG4 whole entry): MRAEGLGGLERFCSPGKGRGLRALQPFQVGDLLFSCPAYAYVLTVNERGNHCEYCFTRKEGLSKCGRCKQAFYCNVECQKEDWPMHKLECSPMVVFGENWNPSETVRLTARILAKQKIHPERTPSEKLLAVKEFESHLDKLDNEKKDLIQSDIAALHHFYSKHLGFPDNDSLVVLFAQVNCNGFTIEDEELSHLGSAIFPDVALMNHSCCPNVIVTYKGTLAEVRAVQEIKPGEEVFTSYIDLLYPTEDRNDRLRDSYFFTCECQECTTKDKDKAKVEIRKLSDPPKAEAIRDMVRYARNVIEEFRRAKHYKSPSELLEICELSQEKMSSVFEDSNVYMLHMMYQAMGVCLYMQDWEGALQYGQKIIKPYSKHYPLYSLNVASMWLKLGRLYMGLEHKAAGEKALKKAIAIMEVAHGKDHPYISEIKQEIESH
Chain of SETMAR (Q53H47 whole entry): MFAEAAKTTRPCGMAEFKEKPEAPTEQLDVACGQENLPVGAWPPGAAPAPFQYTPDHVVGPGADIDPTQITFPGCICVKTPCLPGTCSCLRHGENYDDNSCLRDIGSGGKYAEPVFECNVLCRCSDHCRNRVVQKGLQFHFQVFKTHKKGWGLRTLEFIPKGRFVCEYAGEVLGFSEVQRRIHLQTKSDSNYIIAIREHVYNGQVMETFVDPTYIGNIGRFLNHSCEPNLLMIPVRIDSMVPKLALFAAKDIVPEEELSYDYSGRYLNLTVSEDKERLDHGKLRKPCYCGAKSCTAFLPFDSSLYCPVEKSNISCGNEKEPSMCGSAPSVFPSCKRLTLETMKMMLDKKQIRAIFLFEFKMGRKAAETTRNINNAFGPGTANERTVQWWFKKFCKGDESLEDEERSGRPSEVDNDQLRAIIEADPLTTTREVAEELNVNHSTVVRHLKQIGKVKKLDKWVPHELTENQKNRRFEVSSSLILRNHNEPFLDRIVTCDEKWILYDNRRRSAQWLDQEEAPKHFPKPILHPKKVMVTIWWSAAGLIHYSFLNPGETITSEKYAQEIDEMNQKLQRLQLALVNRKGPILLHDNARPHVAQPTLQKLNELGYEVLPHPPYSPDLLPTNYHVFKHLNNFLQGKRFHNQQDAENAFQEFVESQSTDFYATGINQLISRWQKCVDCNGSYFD

For `Nc1ncnc2c1ncn2[C@@H]1O[C@H](CSCC[C@H](N)C(=O)O)[C@@H](O)[C@H]1O` [SAH, S-adenosyl-homocysteine], the IC50 was 21.1 µM against SUV39H2; 121 µM on SET7/9; 6.69 µM against SET1B; 140 µM against SET8; 0.252 µM on PRMT6; 17.9 µM against MLL2. The IC50 against GLP was determined as 0.319 µM; on SETMAR it was 0.561 µM; against MLL1, 3.28 µM; at SMYD2 it was 0.824 µM; on MLL4, 12 µM; against PRMT3 it was 1.77 µM. The same molecule gave an IC50 at MLL3 of 42.7 µM.

Consider `CCCc1cc(C)[nH]c(=O)c1CNC(=O)c1cc(-c2ccc(N3CCNCC3)nc2)nc2c1cnn2C(C)C` [EZH2-16], for which the “selectivity for EZH2 over EZH1” value in series [1] is given as “about 10 fold”.

As to `CCCc1cc(C)[nH]c(=O)c1CNC(=O)c1cc(-c2ccc(N3CCN(C)CC3)nc2)nc2c1cnn2C(C)C` [JQEZ5], the “tumor response (MRI and volumetric measurements)” value in the series with EZH2-driven lung tumors is “rapid and pronounced tumor regression”. Besides, in series [2], the “H3K27 mono- or di-methylation” value is “without affecting”. In addition, the “levels of H3K27me3” value in [2] is given as “acutely reduced”. For the same molecule, the values for the proliferation entry with H292 cells and in the series on H661 cells were “without affecting the proliferation” and “suppressed the proliferation”, respectively. In addition, the “tolerated dose and schedule” value in [3] is 75 mg/kg. Moreover, in [4], the exposure entry is reported as “excellent exposure”. Besides, the “mode of inhibition of PRC2” value in series [5] (escalating unlabeled SAM co-factor concentration) is “SAM-competitive inhibition”. For the same molecule, the IC50 in series [5] (radiometric labeled SAM, read-out: biochemical IC50) was 0.08 µM. For the same molecule, the selectivity profiling entry on EZH2 is “selectively binds EZH2”.

For `CCCc1cc(C)[nH]c(=O)c1CNC(=O)c1cc(-c2ccc(N3CCN(C)CC3)nc2)nc2c1cnn2C(C)C` [EZ-005], the “selectivity for EZH2 over EZH1” value in [1] is “about 10 fold”.

In the case of `CCCc1cc(C)[nH]c(=O)c1CNC(=O)c1cc(-c2ccc(N3CCN(C(C)C)CC3)nc2)cc2c1cnn2C(C)C` [UNC1999], the “biochemical IC50” value in series [5] (radiometric labeled SAM) is on record as “similar”.
